Experiments:
[1] = system: food-borne hypercholesteremia rat model; experiment: Lan treatment in food-borne hypercholesteremia rat model; type: in vivo
CYP1A [2] = conditions: Lan 50 mg/kg/day for 7 days; cited from earlier work
Ldlr KO rats = experiment: Lan treatment of Ldlr KO rats; type: in vivo, rat; conditions: Lan 50 mg/kg/day p.o. for 21 days
CES1 = conditions: cited from earlier work
CYP1A [3] = system: CYP1A
[4] = CYP1A1/2 KO compared with WT group; caffeine 5 mg/kg by gavage
[5] = HCD + Lan 10 group (10 mg/kg/day, 11 weeks) vs HCD + Sol group
[6] = HCD + Lan 50 group (50 mg/kg/day, 11 weeks) vs HCD + Sol group
[7] = RLM of KO rats compared with WT rats

Cc1c(OCC(F)(F)F)ccnc1C[S+]([O-])c1nc2ccccc2[nH]1 (centres unmarked) [Lan, Lansoprazole]
decrease of serum LDL-C content [1, 5]: 40%
decrease of serum TG concentration [1, 5]: 27%
increase of HDL-C/LDL-C ratio [1, 5]: 170%
reduction of serum T-C content [1, 5]: 39%
decrease of serum LDL-C content [1, 6]: 65%
decrease of serum TG concentration [1, 6]: 42%
increase of HDL-C/LDL-C ratio [1, 6]: 200%
reduction of serum T-C content [1, 6]: 47%
serum transaminases ([1]; HCD-fed rats, Lan treatment, 11 weeks): reduced serum transaminases to physiological levels
lipid accumulation in liver (oil red O staining) ([1]; both 10 and 50 mg/kg Lan groups vs HCD + Sol group, 11 weeks): less than that in the HCD + Sol group
increase of the metabolic activity of CYP1A in rats (CYP1A [2]): 4 times
lipids in serum, including TG, LDL-C, HDL-C, and T-C (Ldlr KO rats): remained unchanged
liver lipidosis (HE staining) (Ldlr KO rats): significantly alleviated
CYP1A protein expression in the liver (Ldlr KO rats; Western blot): significantly induced

CC(C)CCC[C@@H](C)[C@H]1CC[C@H]2[C@@H]3CC=C4C[C@@H](O)CC[C@]4(C)[C@H]3CC[C@]12C [cholesterol]
inhibitory effect on CES1 (CES1): no inhibitory effect

Cn1c(=O)c2c(ncn2C)n(C)c1=O [caffeine]
Km of caffeine metabolism in RLM (CYP1A [3]; KO versus WT rats RLM): remained unchanged
decrease of CLint of caffeine (CYP1A [3]; [7]): 50%
decrease of Vmax of 3-demethylation caffeine formation (CYP1A [3]; [7]): 38%
increase of AUC of caffeine [4]: 200%

C[C@@H](CO)CCC[C@@H](C)[C@H]1CC[C@H]2[C@@H]3CC=C4C[C@@H](O)CC[C@]4(C)[C@H]3CC[C@]12C [27-hydroxycholesterol]
inhibitory effect on CES1 (CES1): strong selective inhibitory effect
